In assay [1] the target is T1, IDO1 (Homo sapiens, UniProt P14902). In words: IDO1 Human Whole Blood Assay. In kind it is cell-based. Set-up: Human whole blood was drawn in sodium heparin coated tubes from healthy internal donors; from tissue; host or cells: human whole blood from healthy donors, stimulated with LPS and IFNγ. To be noted: LPS and IFNγ stimulated. The method, then: IDO1 Human Whole Blood Assay
Compounds to be tested were serially diluted in ten 3-fold steps in DMSO starting from 10 mM. […] LPS and IFNγ was prepared in RPMI to a 10× of final conc. (1000 ng/mL), final concentration is 100 ng/mL.
Human whole blood was drawn in sodium heparin coated tubes from healthy internal donors. 240 μL of blood was transferred to each of the wells of a v-bottom 96 well plate. 30 μL of compound was transferred from intermediate dilution plate, and incubated for 15 min. 30 μL from stimulants was then transferred to blood and mixed thoroughly.
On day 2 isotope labeled standard of kynurenine and tryptophan was made in water at 1Ox concentration and 30 μL was added to the blood at […] final concentration. The assay plates were centrifuged at 300×G for 10 min with no brake to separate plasma from red blood cells. 60 μL of plasma samples was removed without disturbing red blood cells. Plasma was diluted with RPMI in 1:1 ratio and proteins were precipitated out with two volume of Acetonitrile. The plates were centrifuged at 4000×G for 60 min. 20 μL of supernatant was carefully transferred to a 384 well plate contain 40 μL of 0.1% formic acid in water and analyzed by LC/MS/MS.
LC/MS/MS analyses were performed using Thermo Fisher's LX4-TSQ Quantum Ultra system. This system consists of four Agilent binary high-performance liquid chromatography (HPLC) pumps and a TSQ Quantum Ultra triple quadrupole MS/MS instrument. For each sample, 5 μL were injected onto an Atlantis T3 column (2.1 mm×150 mm, […] particle size) from Waters. The mobile phase gradient pumped at 0.8 mL/min was used to elute the analytes from the column at 25° C. […] Mobile phase A consisted of 0.1% formic acid in water. Mobile phase B consisted of 0.1% of formic acid in acetonitrile. Data was acquired in positive mode using a HESI interface. The operational parameters for the TSQ Quantum Ultra instrument were a spray voltage of 4000 V, capillary temperature of 380° C., vaporizer temperature 400° C., shealth gas 60 arbitrary units, Aux gas 20 arbitrary units, tube lens 85 and collision gas 1.2 mTorr. […] The peak area was integrated by Xcalibur Quan software. The ratios between the kynurenine generated in the reaction and 2D6-Kynurenine spiked-in internal standard were used to generate percentage inhibition and IC50 values.

Assay [2] concerns the target T1, IDO1. Description: IDO1 Cellular Assay in HeLa Cells Stimulated with IFNγ. In kind it is cell-based.
Setting [3] is: about 48 hours, read-out: Hela IC50.

Counter-ions that a name gives are not always drawn.

The values below come from patent US12275729B2 (Merck Sharp & Dohme LLC, priority 2017, dated 2025).

As a reminder, the IC50 is the point on the concentration scale where inhibition reaches its midpoint.

T1 sequence (P14902 whole entry): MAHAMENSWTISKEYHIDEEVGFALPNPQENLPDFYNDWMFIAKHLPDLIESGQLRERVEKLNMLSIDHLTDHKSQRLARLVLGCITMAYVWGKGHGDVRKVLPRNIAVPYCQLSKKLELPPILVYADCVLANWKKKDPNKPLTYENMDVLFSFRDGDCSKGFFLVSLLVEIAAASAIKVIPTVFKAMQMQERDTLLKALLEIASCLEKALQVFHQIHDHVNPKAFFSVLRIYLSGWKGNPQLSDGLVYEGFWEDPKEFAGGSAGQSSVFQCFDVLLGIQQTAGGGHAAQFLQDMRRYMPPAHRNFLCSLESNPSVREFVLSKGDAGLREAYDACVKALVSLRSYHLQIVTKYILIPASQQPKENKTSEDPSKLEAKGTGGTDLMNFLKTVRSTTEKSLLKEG

As for `CC(C)NC(=O)N1CCCc2cc([C@H](C)C(=O)Nc3ccc(F)cc3)ccc21` [Example 89, 6-{(2S)-1-[(4-fluorophenyl)amino]-1-oxopropan-2-yl}-N-(propan-2-yl)-3,4-dihydroquinoline-1(2H)-carboxamide], the figures for the IC50 against IDO1 [1] and at IDO1 [2] (setting [3]) were 38 nM and 3.2 nM, respectively.

On to `CC(C(=O)Nc1ccc(Cl)cc1)c1ccc2c(c1)CCCN2C(=O)c1cccc(Cl)c1` (centres unmarked) [Example 51, 2-[1-(3-chlorobenzene-1-carbonyl)-1,2,3,4-tetrahydroquinolin-6-yl]-N-(4-chlorophenyl)propanamide], for which the half-maximal inhibitory concentration (IC50) at IDO1 [1] was found to be 96 nM; at IDO1 [2] (setting [3]), 2 nM.

Regarding `CC(NC(=O)c1ccc(Cl)cc1)c1ccc2c(n1)CCCN2C(=O)c1cc(C(F)F)ccn1` (centres unmarked) [Example 289, 4-chloro-N-(1-(5-(4-(difluoromethyl)picolinoyl)-5,6,7,8-tetrahydro-1,5-naphthyridin-2-yl)ethyl)benzamide], the IC50 on IDO1 [1] is 17 nM; at IDO1 [2] (setting [3]) it was 2.7 nM.

For the molecule `O=C(N[C@H](c1ccc2c(n1)CCCN2C(=O)C1CC1)C(F)(F)F)c1ccc(F)cc1` [Example 424, (R)—N-(1-(5-(cyclopropanecarbonyl)-5,6,7,8-tetrahydro-1,5-naphthyridin-2-yl)-2,2,2-trifluoroethyl)-4-fluorobenzamide], the half-inhibitory concentration (IC50) was 143 nM at IDO1 [1] and 44.8 nM at IDO1 [2] (read-out: Hela IC50).

Take `O=C(OC1CC1)N1CCc2cc(C3(C(=O)Nc4ccc(F)cc4)CCC3)ccc21` [Example 270, cyclopropyl 5-{1-[(4-fluorophenyl)carbamoyl]cyclobutyl}-2,3-dihydro-1H-indole-1-carboxylate]: the IC50 at IDO1 [1] is 41 nM; at IDO1 [2] (setting [3]) it was 1.2 nM.

In the case of `Cc1cccc(N2CCCc3nc(C4(NC(=O)c5ccc(F)cc5)CC4)ccc32)n1` [Example 245, 4-fluoro-N-(1-(5-(6-methylpyridin-2-yl)-5,6,7,8-tetrahydro-1,5-naphthyridin-2-yl)cyclopropyl)benzamide], the IC50 at IDO1 [1] worked out at 2580 nM; on IDO1 [2] (setting [3]) it was 2.7 nM.

For `CC(NC(=O)c1ccc(F)cc1)c1ccc2c(n1)CCCN2C(=O)c1cc(Cl)cc(Cl)c1` (centres unmarked) [Example 149, N-{1-[5-(3,5-dichlorobenzene-1-carbonyl)-5,6,7,8-tetrahydro-1,5-naphthyridin-2-yl]ethyl}-4-fluorobenzamide], the values for the IC50 against IDO1 [1] and at IDO1 [2] (setting [3]) were 33 nM and 3.2 nM, respectively.

As for `CCN(CC)CCOC(=O)N1CCCc2nc(C(C)NC(=O)c3ccc(F)cc3)ccc21` (centres unmarked) [Example 324, 2-(diethylamino)ethyl 6-(1-(4-fluorobenzamido)ethyl)-3,4-dihydro-1,5-naphthyridine-1(2H)-carboxylate], the IC50 at IDO1 [1] is 239 nM; at IDO1 [2] (read-out: Hela IC50), 3400 nM.

Regarding `O=C(OC1CC1)N1CCCc2nc(C3(C(=O)Nc4ccc(F)cc4)COC3)ccc21` [Example 266, cyclopropyl 6-(3-((4-fluorophenyl)carbamoyl)oxetan-3-yl)-3,4-dihydro-1,5-naphthyridine-1(2H)-carboxylate], the IC50 turned out to be 4 nM on IDO1 [1] and 2.8 nM on IDO1 [2] (setting [3]).

`Cc1ccc(C(=O)NC2(c3ccc4c(n3)CCCN4c3ccnc(C)n3)CC2)cc1` [Example 303, 4-methyl-N-(1-(5-(2-methylpyrimidin-4-yl)-5,6,7,8-tetrahydro-1,5-naphthyridin-2-yl)cyclopropyl)benzamide]: the figures for the IC50 against IDO1 [1] and on IDO1 [2] (setting [3]) were 106 nM and 2.15 nM, respectively.

Turning to `Cc1nccc(N2CCCc3nc(C4(C(=O)Nc5ccc(F)cc5)CC5(CC5)C4)ccc32)n1` [Example 415, 2-(5-((4-fluorophenyl)carbamoyl)spiro [2.3]hexan-5-yl)-5-(2-methylpyrimidin-4-yl)-5,6,7,8-tetrahydro-1,5-naphthyridin-1-ium 2,2,2-trifluoroacetate], the figures for the IC50 at IDO1 [1] and on IDO1 [2] (read-out: Hela IC50) were 18 nM and 3.19 nM, respectively.

For `Cc1nccc(N2CCCc3nc(C4(C(=O)Nc5ccc(F)cc5)CC(F)C4)ccc32)n1` (centres unmarked) [Example 419, 2-(3-fluoro-1-((4-fluorophenyl)carbamoyl)cyclobutyl)-5-(2-methylpyrimidin-4-yl)-5,6,7,8-tetrahydro-1,5-naphthyridin-1-ium 2,2,2-trifluoroacetate], the IC50 at IDO1 [1] came to 69 nM; at IDO1 [2] (read-out: Hela IC50), 1.09 nM; at IDO1 [2] (value in running text, read-out: Hela IC50), 1 nM.

On to `Cc1ncnc(N2CCCc3nc(C(C)NC(=O)c4ccc(Cl)cc4)ccc32)c1C` (centres unmarked) [Example 347, 4-chloro-N-(1-(5-(5,6-dimethylpyrimidin-4-yl)-5,6,7,8-tetrahydro-1,5-naphthyridin-2-yl)ethyl)benzamide], for which the half-inhibitory concentration (IC50) was determined as 340 nM against IDO1 [1] and 156 nM at IDO1 [2] (read-out: Hela IC50).

Turning to `Cc1nccc(N2CC(F)Cc3cc(C4(NC(=O)c5ccc(Cl)cc5)CC4)ccc32)n1` (racemic) [Example 437, 4-chloro-N-(1-(3-fluoro-1-(2-methylpyrimidin-4-yl)-1,2,3,4-tetrahydroquinolin-6-yl)cyclopropyl)benzamide, 2,2,2-trifluoroacetate salt], the IC50 on IDO1 [1] worked out at 16 nM; on IDO1 [2] (read-out: Hela IC50), 1.82 nM.

As for `Cc1nccc(N2CCCCc3nc(C4(NC(=O)c5ccc(F)cc5)CC4)ccc32)n1` [Example 432, 4-fluoro-N-(1-(5-(2-methylpyrimidin-4-yl)-6,7,8,9-tetrahydro-5H-pyrido[3,2-b]azepin-2-yl)cyclopropyl)benzamide], the IC50 at IDO1 [1] worked out at 4 nM; at IDO1 [2] (value in running text, read-out: Hela Cell IC50), 3.3 nM.

With `C[C@H](C(=O)Nc1ccc(F)cc1)c1ccc2c(c1)CCCN2C(=O)C1CCOCC1` [Example 81, (2S)-N-(4-fluorophenyl)-2-[1-(oxane-4-carbonyl)-1,2,3,4-tetrahydroquinolin-6-yl]propanamide], the results for the IC50 against IDO1 [1] and on IDO1 [2] (setting [3]) were 99 nM and 4.8 nM, respectively.

Regarding `Cc1nccc(N2CCCc3nc(C(C)(C)C(=O)Nc4ccc(Cl)cc4)ccc32)n1` [Example 390, N-(4-chlorophenyl)-2-methyl-2-(5-(2-methylpyrimidin-4-yl)-5,6,7,8-tetrahydro-1,5-naphthyridin-2-yl)propanamide], the IC50 was found to be 73 nM on IDO1 [1] and 2.42 nM on IDO1 [2] (setting [3]).

With `CC(NC(=O)c1ccc(F)cc1)c1ccc2c(n1)CCCN2c1ccn2nccc2n1` (centres unmarked) [Example 368, 4-fluoro-N-(1-(5-(pyrazolo[1,5-a]pyrimidin-5-yl)-5,6,7,8-tetrahydro-1,5-naphthyridin-2-yl)ethyl)benzamide], the results for the IC50 at IDO1 [1] and at IDO1 [2] (read-out: Hela IC50) were 16 nM and 18 nM, respectively.

As for `CC(NC(=O)c1ccc(Cl)cc1)c1ccc2c(n1)CCCN2c1cccc(CO)n1` (centres unmarked) [Example 346, 4-chloro-N-(1-(5-(6-(hydroxymethyl)pyridin-2-yl)-5,6,7,8-tetrahydro-1,5-naphthyridin-2-yl)ethyl)benzamide], the IC50 on IDO1 [1] stood at 100 nM; on IDO1 [2] (read-out: Hela IC50), 8.22 nM.

In the case of `Cc1nc(C(=O)N2CCCc3cc(C4(C(=O)Nc5ccc(F)cc5)CCC4)ccc32)no1` [Example 100, N-(4-fluorophenyl)-1-[1-(5-methyl-1,2,4-oxadiazole-3-carbonyl)-1,2,3,4-tetrahydroquinolin-6-yl]cyclobutane-1-carboxamide], the values for the IC50 against IDO1 [1] and at IDO1 [2] (setting [3]) were 90 nM and 1.2 nM, respectively.

Consider `Cc1nccc(N2CCCc3nc(C(C)(C)C(=O)Nc4ccc(F)cc4)ccc32)n1` [Example 389, N-(4-fluorophenyl)-2-methyl-2-(5-(2-methylpyrimidin-4-yl)-5,6,7,8-tetrahydro-1,5-naphthyridin-2-yl)propanamide], for which the IC50 was found to be 44 nM against IDO1 [1] and 2.92 nM at IDO1 [2] (setting [3]).

Turning to `Cc1nccc(N2CCCc3nc(C4(C(=O)Nc5ccc(F)cc5)CC4(F)F)ccc32)n1` (single isomer, unassigned) [Example 421, 2,2-difluoro-N-(4-fluorophenyl)-1-(5-(2-methylpyrimidin-4-yl)-5,6,7,8-tetrahydro-1,5-naphthyridin-2-yl)cyclopropanecarboxamide], the IC50 against IDO1 [1] was 65 nM; at IDO1 [2] (read-out: Hela IC50), 2.64 nM.

On to `CC(C)(C(=O)Nc1ccc(Cl)cc1)c1ccc2c(c1)CCCN2C(=O)c1cccc(Cl)c1` [Example 187, 2-[1-(3-chlorobenzene-1-carbonyl)-1,2,3,4-tetrahydroquinolin-6-yl]-N-(4-chlorophenyl)-2-methylpropanamide], for which the IC50 against IDO1 [1] is 2040 nM; on IDO1 [2] (setting [3]) it was 4.5 nM.
